# Reference: patent publication US20050170397A1, “Novel receptors” (Tularik Inc., priority 2000, published 2005)
# Entries after “also recorded” stand apart in the source; their conditions may differ. Where no end group is shown, it is not given here.
# Columns and labels:
# [1] = system: endogenous Gq receptors; experiment: Ca^2+ response through endogenous Gq receptors with or without PTX (control); format: cell-based; details: HEK293 cells; 100 ng/ml PTX for 16 hr; FIG. 7
# Method: (§1) The Ca^2+ responses were determined with the aequorin assay. Relative luminescence is expressed as the fold-luminescence of that from the cells treated with the highest cocnetration of the ligand without PTX treatment.
# (§2) LPA and ADP, which stimulate Ca^2+ increase through endogenous Gi and Gq receptors, respectively (see, e.g., Moolenaar, Ann. N. Y Acad. Sci. 905:1-10, 2000; Fields et al., Biochem. J. 321:561-571, 1997), were tested as controls. As expected, LPA-induced Ca^2+ response was PTX sensitive while the ADP-induced response was resistant (FIG. 7).
# [2] = target: T1, TGR342 (Homo sapiens, UniProt Q969V1); experiment: aequorin luminescence assay of intracellular calcium mobilization, TGR342-transfected cells; format: cell-based; details: for effect on intracellular calcium levels (peptide library screen): peptides at 1 μM, HEK293 or CHO cells co-transfected with pEF6-V5/TGR342 and pcDNA3/AEQ; for TGR342 agonist activity of MCH-related peptides / TGR342 agonist activity at 1 μM: FIG. 5; for TGR342 agonist activity of MCH-related peptides: concentration not given
# T1 construct: The full-length TGR342 cDNA was cloned by; V5 (known only from the vector name pEF6-V5); expressed in transfected cells; host or cells: HEK293 and CHO cells, transient
# Method: HEK293 and CHO cells were transiently co-transfected with pEF6-V5/TGR342 and pcDNA3/AEQ (expressing aequorin). After 24 hours of incubation, the transfected cells were treated for one hour with serum free medium containing 2 μM coelenterazine f (Molecular Probes). The cells were then collected in the assay buffer HBSS (Hanks' Balanced Saline Solution containing 10 mM hepes and 0.1% BSA). Thereafter, the transfected cells were stimulated with the peptides at a concentration of 1 μM and the kinetics of […] from the cells was recorded with a microplate luminometer (EG & G BERTHOLT).
# [3] = target: T1, TGR342; experiment: [^125I]-MCH binding to membranes of TGR342-transfected HEK293 cells; details: inhibited by excess unlabeled MCH (data not shown)
# [4] = target: T1, TGR342; experiment: Ca^2+ response (aequorin assay) with or without pertussis toxin, TGR342-transfected cells; format: cell-based
# Method: as §1, §2
# [5] = target: T2, MCHR1 (Homo sapiens, UniProt Q99705); experiment: Ca^2+ response (aequorin assay) with or without pertussis toxin, MCHR1-transfected cells; format: cell-based; details: MCH stimulation; 100 ng/ml PTX pretreatment for 16 hr
# Method: as §1, §2
# [6] = target: T1, TGR342; experiment: inositol phosphate production in TGR342-transfected cells with or without PTX; format: cell-based
# [7] = target: T2, MCHR1; details: stated as known; cited from earlier work
# [8] = 100 ng/ml PTX pretreatment for 16 hr
# [9] = HEK293 (or CHO) cells transfected with pEF6/V5-TGR342
# T1 sequence (Q969V1 whole entry): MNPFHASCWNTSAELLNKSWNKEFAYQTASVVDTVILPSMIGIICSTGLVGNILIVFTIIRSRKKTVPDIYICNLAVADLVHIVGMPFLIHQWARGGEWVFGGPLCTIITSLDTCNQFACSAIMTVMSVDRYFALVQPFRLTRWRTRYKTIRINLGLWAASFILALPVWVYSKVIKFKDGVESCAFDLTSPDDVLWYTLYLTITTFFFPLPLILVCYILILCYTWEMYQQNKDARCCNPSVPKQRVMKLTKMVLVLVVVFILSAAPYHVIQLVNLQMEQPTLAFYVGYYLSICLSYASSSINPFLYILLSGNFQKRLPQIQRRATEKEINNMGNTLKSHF
# T2 sequence (Q99705 whole entry): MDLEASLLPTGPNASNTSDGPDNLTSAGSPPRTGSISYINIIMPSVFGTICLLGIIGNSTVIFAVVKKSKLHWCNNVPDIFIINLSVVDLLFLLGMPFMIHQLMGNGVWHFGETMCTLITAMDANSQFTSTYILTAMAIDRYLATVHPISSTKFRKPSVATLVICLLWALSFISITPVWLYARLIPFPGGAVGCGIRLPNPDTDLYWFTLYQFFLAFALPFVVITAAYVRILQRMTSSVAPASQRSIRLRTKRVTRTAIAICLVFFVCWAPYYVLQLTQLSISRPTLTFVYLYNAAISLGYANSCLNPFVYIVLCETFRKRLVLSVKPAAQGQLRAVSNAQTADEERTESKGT
compound,measurement,setting,value
Nc1ncnc2c1ncn2[C@@H]1O[C@H](COP(=O)(O)OP(=O)(O)O)[C@@H](O)[C@H]1O [ADP],PTX sensitivity of the Ca^2+ response through endogenous Gq receptors,[1],resistant
"CSCC[C@@H]1NC(=O)[C@@H](NC(=O)[C@H](CCCNC(=N)N)NC(=O)[C@H](CC(C)C)NC(=O)[C@H](CCSC)NC(=O)[C@H](CC(=O)O)NC(=O)[C@H](Cc2ccccc2)NC(=O)[C@@H](N)CC(=O)O)CSSC[C@@H](C(=O)N[C@@H](Cc2c[nH]c3ccccc23)C(=O)N[C@@H](CCC(N)=O)C(=O)N[C@H](C(=O)O)C(C)C)NC(=O)[C@@H]2CCCN2C(=O)[C@H](CCCNC(=N)N)NC(=O)[C@H](Cc2ccc(O)cc2)NC(=O)[C@H](C(C)C)NC(=O)[C@H](CCCNC(=N)N)NC(=O)CNC(=O)[C@H](CC(C)C)NC1=O [MCH, melanin-concentrating hormone]",effect on intracellular calcium levels (peptide library screen),[2],increased intracellular calcium levels
same,specificity of binding to TGR342,[3],specific
same,"PTX sensitivity of the Ca^2+ response, TGR342",[4]; [8],insensitive to PTX treatment
same,Ca^2+ levels in TGR342-transfected cells,[4]; [9],increased levels
same,"PTX sensitivity of the Ca^2+ response, MCHR1",[5],mostly inhibited
same,"PTX sensitivity of the inositol phosphate response, TGR342",[6]; [8],insensitive to PTX treatment
same,inositol phosphate levels in TGR342-transfected cells,[6]; [9],increased levels; also recorded: increased the production of inositol phosphate
"[Phe^13, Tyr^19]-MCH",TGR342 agonist activity of MCH-related peptides,[2],activates
same,activation of MCHR1 (known),[7],bind and activate
"cortistatin-14 (PCKNFFWKTFSSCK; ends and bridges not checked; cysteine pairing not given here; UniProt Q62949 99-112, looked up) [peptide structurally very similar to somatostatin]",TGR342 agonist activity at 1 μM,[2],None of these peptides exhibited activity
cortistatin-17,TGR342 agonist activity at 1 μM,[2],None of these peptides exhibited activity
"neuropeptide GE: peptide from the same MCH precursor (GSVAFPAENGVQNTESTQE; Neuropeptide-glycine-glutamic acid; UniProt P20382 110-128, looked up)",TGR342 agonist activity of MCH-related peptides,[2],inactive
"neuropeptide-EI: peptide from the same MCH precursor (EIGDEENSAKFPI; ends and bridges not checked; UniProt P20382 131-143, looked up)",TGR342 agonist activity of MCH-related peptides,[2],inactive
somatostatin-14,TGR342 agonist activity at 1 μM,[2],None of these peptides exhibited activity
somatostatin-28,TGR342 agonist activity at 1 μM,[2],None of these peptides exhibited activity
α-MSH: the functional MCH antagonist,TGR342 agonist activity at 1 μM,[2],inactive as an agonist
same,effect on intracellular calcium levels (peptide library screen),[2],Neither somatostatin nor α-MSH showed any detectable effect
